“Also recorded” adds a separate entry of the source.
Assays:
[1] = test system: BCR-ABL-NUP98-HOXA9 leukemia
Description: Recipients were untreated (haploBMT) or administered PT-Cy (50 mg/kg) on D+3 and D+4 (PT-Cy) with or without decoy-resistant IL-18 (PT-Cy + DR-18; 8 µg twice weekly from D+7 to week 5) or CD137 agonist antibody (PT-Cy + αCD137; 100 µg twice weekly from D+7 to week 5).
It was next sought to explore the combination of agonist immunotherapy with PT-Cy in a model of haploidentical transplantation (haploBMT), a setting where PT-Cy is a clinical standard of care. In this model, there is a major genetic mismatch between the recipient and the donor whereby lethal GVHD occurs in the absence of any immunosuppressive interventions.
To explore the mechanisms of DR-18-driven GVL in a haploBMT setting, donor cells from a triple reporter mouse (FoxP3-RFP × IL-10-GFP × IFN-γ-YFP) were used to measure in vivo cytokine production without restimulation. Phenotyping was performed in mice with low leukemia burden to minimize the effect of tumor cells on T cell number in the BM.
(§1) Stem cell transplantation: Recipient mice were intravenously injected with Vk12653, which originated from Vk*MYC transgenic mice, 2 weeks before BMT (1 × 10^6 CD138^+CD19neg cells; MM-bearing mice) or with an MLL-AF9-driven AML (MLL-AF9; 0.1 × 10^6 GFP^+) or BCR-ABL-NUP98-HOXA9 (1.0 × 10^6 GFP^+) on D0 (AML-bearing mice). Recipients were transplanted with BM and T cell grafts (doses detailed in the figure legends) administered via tail vein injection the day after lethal irradiation (1000 cGy for C57B⅙ and 1100 cGy for B62DF1, 137Cs source). Every 2 weeks, serum samples were collected from MMbearing recipients, and M-band was quantified using a Sebia Hydrasys serum protein electrophoresis system ([…] 2 Scan). Leukemia cell number in blood was calculated weekly using flow cytometry to quantify GFP^+ cells in blood. Recipients were monitored daily, up to 120 days after BMT, and euthanized when hindlimb paralysis occurred or clinical scores reached ≥6. In competing risk analyses, deaths were attributed to myeloma if the M-band was above 0.28, a defined relapse threshold. In the leukemia models, leukemic death was defined by a white blood cell count above 50 × 10^6/ml or a GFP^+ leukemia frequency above 50% in blood or BM. For some experiments, mice were treated with 100 µg of anti-TIGIT monoclonal antibody (mAb; 4B1, Bristol Myers Squibb) or mouse IgG2a (anti-KLH) twice a week for 4 weeks from D+14 postalloBMT. For other experiments, mice were treated with 100 µg of Fc-dead anti-TIGIT mAb (D265A, Bristol Myers Squibb) or mouse IgG1 (anti-KLH.1) twice a week for 6 weeks from D+21 postalloBMT. Cyclophosphamide (Fisher Scientific; 99.5%, MP Biomedicals) was intraperitoneally administered at 50 mg/kg on D+3 and D+4 after alloBMT (PT-Cy). […] DR-18 was supplied by Simcha Therapeutics (New Haven, CT).

[2] = test system: T cells in the BM
Description: It was next investigated whether it was possible to eliminate highly activated, alloreactive T cells to preserve T cell subsets that could be safely harnessed to improve GVT responses in the BM after alloBMT. […] T cell phenotypes in the BM were first assessed 14 days after transplantation in MM-free mice to generate a dataset that could be broadly interpreted independent of specific tumor induced phenotypes. Single-cell sequencing was performed on sorted T cells from BM with the 10x Genomics Multiome platform to measure concurrent changes in gene expression (RNA sequencing) and chromatin accessibility (ATAC (assay for transposase-accessible chromatin) sequencing).
(§2) Cell preparation for flow cytometry: Recipient mice were euthanized 2 to 8 weeks after transplant, and cells from BM or blood were harvested. For BM aspirates, mice were anesthetized and treated with a local analgesic (0.5% lidocaine) followed by injection of 30 µl of phosphate-buffered saline (PBS) into the femur to allow up to 10 µl of marrow to be aspirated for fluorescence- activated cell sorting (FACS) analysis. For surface marker phenotyping, isolated cells were incubated with Fc-block before staining with fluorescently tagged antibodies (listed in Table 1), on ice for 30 min. For intracellular staining, cells were surface labeled, fixed, and permeabilized (eBioscience, Foxp3 Transcription Factor Staining Buffer Kit) before intracellular staining at room temperature for 60 min. To measure cytokine production, cells were stimulated for 4 hours at 37° C. with PMA (500 ng/ml) and ionomycin (50 ng/ml; Sigma-Aldrich) with brefeldin A (BioLegend). All samples were acquired on a BD LSR Fortessa (BD Biosciences) or BD FACSymphony A3 (BD Biosciences) and analyzed using FlowJo software (v10). t-SNE analysis was performed using the FlowJo plugin with default settings on a concatenated sample with 3000 CD8 T cells per mouse. FlowSOM analysis was performed with 3000 to 4000 CD8 or CD4 T cells per mouse concatenated after downsampling.
Single-cell RNA/ATAC sequencing: Naive C57B⅙ mice were transplanted with C3H.SW grafts and were untreated (alloBMT) or treated with PT-Cy (50 mg/kg) on D+3 and D+4 (PT-Cy). BM was harvested from femurs (four mice pooled per group) at D+14 after alloBMT, and T cells were sort-purified (CD90.2^+CD4^+ and CD90.2^+CD8^+) before nuclei preparation according to the 10x Genomics Multiome protocol. Nuclei (also referred to as cells herein) were captured and libraries were generated according to the manufacturer’s specifications. Libraries were sequenced using Illumina NovaSeq 6000 targeting a depth of 25,000 reads per cell per library.
Single-cell RNA/ATAC analysis: Reads were demultiplexed and processed using cellranger-arc v1.0.1 aligning reads to GENCODE vM23/Ensembl98. Peaks were called from each sample’s fragment file (cellranger output) using MACS2 using the parameters “--nomodel --extsize 200 --shift -100.” Quantification of reads in MACS2 peaks were calculated and integrated with cellranger RNA output using Signac. Cells meeting the following criteria (calculated using Signac) were retained for downstream analysis: percent mitochondrial RNA reads <10%; 3 > log10(ATAC counts) < 4.5; 3 > log10(RNA/UMI counts) < 4.5; fraction of reads in peaks >40%; transcription start site (TSS) percentile >75%. RNA/unique molecular identifier (UMI) counts were subject to a variance-stabilized normalization procedure using Seurat’s “glmGamPoi” function before dimensionality reduction using principal components analysis (PCA).

[3] = test system: Vk*MYC myeloma; format: in vivo
Excerpt: To achieve this, a system of allogeneic BMT was developed where C57B⅙ recipients are transplanted with BM and T cell grafts from minor MHC (major histocompatibility complex)-mismatched C3H.SW donors (alloBMT) or syngeneic C57B⅙ donors (synBMT). A green fluorescent protein (GFP)-expressing MLL-AF9-driven leukemia that allows for monitoring of tumor cells in peripheral blood and Vk*MYC myeloma that secretes immunoglobulin G (IgG), which can be monitored by serum protein electrophoresis as an M-band (albumin/gamma ratio) that is a hallmark of clinical disease, were utilized.
as §1, §2
Statistical analysis: Data are presented as means ± SEM, and P < 0.05 was considered significant. Survival curves were plotted using Kaplan-Meier estimates and compared by log-rank (Mantel-Cox) test.

[4] = 50 mg/kg D+3 and D+4, vs untreated haploBMT
[5] = 21 days after transplantation, vs untreated haploBMT
[6] = 21 days, PT-Cy vs untreated haploBMT
[7] = 50 mg/kg D+3 and D+4, D+14, multiome sequencing, vs untreated alloBMT
[8] = 50 mg/kg D+3 and D+4, vs untreated recipients

For `O=P1(N(CCCl)CCCl)NCCCO1` (stereo not shown) [PT-Cy, cyclophosphamide], the “incidence of lethal GVHD” value [1, 4] was “reduced the incidence of lethal GVHD”, the relapse-related mortality [1, 4] was “increased relapse-related mortality” and the “CD8+ T cell numbers in the BM” value [1, 5] was “reduced”. For the same compound, the “NK cells in the BM” value [1, 5] was “increased”, the “CD4+ IFN-γ production” value [1, 6] was “unaffected” and the “frequency of IFN-γ+ CD8+ T cells” value [1, 6] was “minimally decreased”. The overall survival ([1]; PT-Cy vs untreated haploBMT) was “no difference in overall survival”, the “chromatin accessibility (gene activity scores) of Il18r1, Il2ra, Il7r in CD8+ and CD4+ T cells” value ([2]; 50 mg/kg D+3 and D+4, D+14, ATAC) was “increased gene activity scores” and the “gene signature expression in BM CD8+ T cells” value [2, 7] was “higher expression of stem-like memory gene signatures”. For the same compound, the “gene signature in BM CD4+ T cells” value [2, 7] was “largely enriched for a TSCM signature”, the “CD8+ T cell phenotype in BM, MM-free recipients” value ([2]; 7 weeks after transplant) was “most CD8^+ T cells were DNAM-1^+TIGIT^- and did not express TOX or TIM-3” and the “CD8+ central memory and terminal effector T cells, MM-free recipients” value ([2]; 7 weeks after transplant) was “increase in CD8^+ central memory (TCM; CD44^+CD62L^+) and a decrease in terminal effector (TEFF; CD44^-CD62L^-) T cells”. For the same compound, the “frequency of alloreactive, exhausted T cells in the BM” value ([2]; D+14) was “reduced the frequency of alloreactive, exhausted T cells”, the “granzyme B production by CD8+ T cells” value ([2]; D+14, RNA and protein expression) was “did not abrogate granzyme B production” and the “CD4+ T cell exhaustion signature in FoxP3- conventional CD4+ T cells” value ([2]; D+14, flow cytometry) was “largely indistinguishable from synBMT recipients”. For the same compound, the “DNAM-1, TIGIT, PD-1 and TOX expression on BM CD8+ T cells” value ([2]; D+14, flow cytometry, vs alloBMT without PT-Cy) was “significantly increased DNAM-1 and reduced TIGIT, PD-1, and TOX expression”, the overall survival ([3]; 50 mg/kg D+3 and D+4, vs untreated alloBMT) was “did not significantly reduce overall survival” and the “myeloma burden (M-band) at 4 weeks after alloBMT” value [3, 8] was “early myeloma cytoreduction with reduced M-bands”. The “myeloma progression (M-band) 8 weeks after alloBMT” value [3, 8] was “subsequent increase in myeloma progression”, the “CD8+ T cell phenotype in BM, MM-bearing recipients” value ([3]; 7 weeks after transplant) was “most CD8^+ T cells were DNAM-1-TIGIT^+ with high expression of TOX and TIM-3” and the “total numbers of CD4+ and CD8+ T cells in BM” value ([3]; 7 weeks after transplant) was “reduction in total numbers of CD4^+ and CD8^+ T cells”. The “total T cell numbers (CD8 and CD4) in BM” value ([3]; D+14 (MM-free) and D+21 (MM-bearing) after alloBMT) was “concurrently reduced; also recorded: reduces the total number of CD8 and CD4 T cells”.

— patent US20230201262A1, “MYELOMA-SPECIFIC IMMUNITY REQUIRES THE DIFFERENTIATION OF STEM-LIKE MEMORY T CELLS IN THE BONE MARROW” (Fred Hutchinson Cancer Center, priority 2021, published 2023)
